The test system of the experiment is HCT-116. The experiment in a line: Cytotoxicity against human HCT116 cells after 48 hrs by MTT assay. Format: functional, cell-based. Conditions: HCT-116, 48 h.

SMILES strings stand for the structures.

This is an account of results in ChEMBL document CHEMBL4024731, “Cytotoxic steroidal saponins from Trillium kamtschaticum” (Bioorg Med Chem Lett, 2017).

Usually IC50 stands for the concentration that gives 50% inhibition.

Take `CC(=O)OC[C@H]1[C@@H]2C3=C(C(=O)[C@@H]2O[C@@]12OC[C@H](C)[C@@H](O)[C@@H]2O)[C@@H]1CC=C2C[C@@H](O)C[C@@H](O[C@@H]4OC[C@H](O)[C@H](O)[C@H]4O[C@@H]4O[C@@H](C)[C@H](OC(C)=O)[C@@H](O[C@@H]5OC[C@](O)(CO)[C@H]5O)[C@H]4O)[C@]2(C)[C@H]1CC3`: the IC50 turned out to be 4.92 µM. The value for `C/C(C(=O)CC[C@@H](C)CO[C@@H]1O[C@H](CO)[C@@H](O)[C@H](O)[C@H]1O)=C1/C(=O)C[C@H]2[C@@H]3CC=C4C[C@@H](O[C@@H]5O[C@H](CO)[C@@H](O[C@@H]6O[C@@H](C)[C@H](O)[C@@H](O)[C@H]6O)[C@H](O)[C@H]5O)CC[C@]4(C)[C@H]3CC[C@]12C` was 17.3 µM.

`CC(=O)O[C@H]1[C@@H](C)CO[C@@]2(O[C@H]3C(=O)C4=C(CC[C@H]5[C@H]4CC=C4C[C@@H](O)C[C@@H](O[C@@H]6OC[C@H](O)[C@H](O[C@@H]7OC[C@@H](O)[C@H](O)[C@H]7O)[C@H]6O[C@@H]6O[C@@H](C)[C@H](O)[C@@H](O[C@@H]7OC[C@](O)(CO)[C@H]7O)[C@H]6O)[C@@]45C)[C@H]3[C@@H]2CO)[C@H]1O` gave an IC50 of 5.84 µM. The value for `CC1=C2[C@](O)(C[C@H]3[C@@H]4CC=C5C[C@@H](O[C@@H]6O[C@H](CO)[C@@H](O[C@@H]7O[C@@H](C)[C@H](O)[C@@H](O)[C@H]7O)[C@H](O)[C@H]6O[C@@H]6O[C@@H](C)[C@H](O)[C@@H](O)[C@H]6O)CC[C@]5(C)[C@H]4CC[C@]23C)[C@@H](C[C@@H](C)CO[C@@H]2O[C@H](CO)[C@@H](O)[C@H](O)[C@H]2O)C1=O` was greater than 40 µM.

`Cc1c(CCC(C)CO)ccc2c1[C@@]1(C)CC[C@H]3[C@@H](CC=C4C[C@@H](O[C@@H]5O[C@H](CO)[C@@H](O)[C@H](O)[C@H]5O[C@@H]5O[C@@H](C)[C@H](O)[C@@H](O)[C@H]5O)CC[C@@]43C)[C@@H]1C2` (stereo not given in full) returned an IC50 greater than 40 µM. The result for `C[C@@H]1O[C@@H](O[C@H]2[C@H](O[C@H]3CC[C@@]4(C)C(=CC[C@@H]5[C@@H]4CC[C@]4(C)C(=O)OC[C@@H]54)C3)O[C@H](CO)[C@@H](O)[C@@H]2O)[C@H](O)[C@H](O)[C@H]1O` reads greater than 40 µM. The result for `COC(=O)/C(C)=C1\C(=O)C[C@H]2[C@@H]3CC=C4C[C@@H](O[C@@H]5O[C@H](CO)[C@@H](O)[C@H](O)[C@H]5O[C@@H]5O[C@@H](C)[C@H](O)[C@@H](O)[C@H]5O)CC[C@]4(C)[C@H]3CC[C@]12C` reads greater than 40 µM; that for `CC(=O)OC[C@H]1[C@@H]2C3=C(C(=O)[C@@H]2O[C@@]12OC[C@H](C)[C@@H](O)[C@@H]2O)[C@@H]1CC=C2C[C@@H](O)C[C@@H](O[C@@H]4OC[C@H](O)[C@H](O[C@@H]5OC[C@@H](O)[C@H](O)[C@H]5O)[C@H]4O[C@@H]4O[C@@H](C)[C@H](O)[C@@H](O[C@@H]5OC[C@](O)(CO)[C@H]5O)[C@H]4O)[C@]2(C)[C@H]1CC3`, 22.5 µM. Take `C/C(C(=O)CC[C@@H](C)CO[C@@H]1O[C@H](CO)[C@@H](O)[C@H](O)[C@H]1O)=C1/C(=O)C[C@H]2C3CC=C4C[C@@H](O[C@@H]5O[C@H](CO)[C@@H](O)[C@H](O)[C@H]5O[C@@H]5O[C@@H](C)[C@H](O)[C@@H](O)[C@H]5O)CC[C@]4(C)[C@H]3CC[C@]12C` (single isomer, unassigned): the IC50 worked out at 12.7 µM. The result for `CC[C@@]1(O)C(=O)OCc2c1cc1n(c2=O)Cc2cc3ccccc3nc2-1` [CAMPTOTHECIN] reads 0.0115 µM.
